Test results from the kinase profiling compilation of Christmann-Franck et al. (2016).

Legend:
Assay in all cases: radiometric filter-binding kinase assay, Kinase HotSpot
Settings in all cases: compound 0.5 µM; ATP 10 µM
CDK4 CCND1 (human) = CDK4 CCND1 (human) (UniProt P24385+P11802)
DAPK2 (human) = DAPK2 (human) (UniProt Q9UIK4)
CDC42BPB (human) = CDC42BPB (human) (UniProt Q9Y5S2)
MAP3K7 TAB1 (human) = MAP3K7 TAB1 (human) (UniProt O43318+Q15750)
MAP4K2 (human) = MAP4K2 (human) (UniProt Q12851)
PRKCZ (human) = PRKCZ (human) (UniProt Q05513)
CLK3 (human) = CLK3 (human) (UniProt P49761)
TTK (human) = TTK (human) (UniProt P33981)
SRC (human) = SRC (human) (UniProt P12931)
LRRK2 (human) = LRRK2 (human) (UniProt Q5S007)
ACVR1 (human) = ACVR1 (human) (UniProt Q04771)
PKN2 (human) = PKN2 (human) (UniProt Q16513)
WNK2 (human) = WNK2 (human) (UniProt Q9Y3S1)
FER (human) = FER (human) (UniProt P16591)
TSSK2 (human) = TSSK2 (human) (UniProt Q96PF2)
PRKCB2 (human) = PRKCB2 (human) (UniProt P05771)
CDK4 CCND3 (human) = CDK4 CCND3 (human) (UniProt P30281+P11802)
FLT1 (human) = FLT1 (human) (UniProt P17948)
MAPK12 (human) = MAPK12 (human) (UniProt P53778)
CDK6 CCND1 (human) = CDK6 CCND1 (human) (UniProt Q00534+P24385)
EPHA4 (human) = EPHA4 (human) (UniProt P54764)
TYRO3 (human) = TYRO3 (human) (UniProt Q06418)
NLK (human) = NLK (human) (UniProt Q9UBE8)
MAPK8 (human) = MAPK8 (human) (UniProt P45983)
AKT2 (human) = AKT2 (human) (UniProt P31751)
PLK3 (human) = PLK3 (human) (UniProt Q9H4B4)
PDGFRB (human) = PDGFRB (human) (UniProt P09619)
FGFR1 (human) = FGFR1 (human) (UniProt P11362)
SYK (human) = SYK (human) (UniProt P43405)
RPS6KA5 KD2 (human) = RPS6KA5 KD2 (human) (UniProt O75582)
CSNK1E (human) = CSNK1E (human) (UniProt P49674)
LIMK1 (human) = LIMK1 (human) (UniProt P53667)
RPS6KA4 KD2 (human) = RPS6KA4 KD2 (human) (UniProt O75676)
WNK3 (human) = WNK3 (human) (UniProt Q9BYP7)
MST4 (human) = MST4 (human) (UniProt Q9P289)
ERBB4 (human) = ERBB4 (human) (UniProt Q15303)
MAPK13 (human) = MAPK13 (human) (UniProt O15264)
PIM2 (human) = PIM2 (human) (UniProt Q9P1W9)
AURKC (human) = AURKC (human) (UniProt Q9UQB9)
DDR2 (human) = DDR2 (human) (UniProt Q16832)
MAPKAPK3 (human) = MAPKAPK3 (human) (UniProt Q16644)
GRK7 (human) = GRK7 (human) (UniProt Q8WTQ7)
GRK7 (human), sequence (Q8WTQ7 whole entry, looked up): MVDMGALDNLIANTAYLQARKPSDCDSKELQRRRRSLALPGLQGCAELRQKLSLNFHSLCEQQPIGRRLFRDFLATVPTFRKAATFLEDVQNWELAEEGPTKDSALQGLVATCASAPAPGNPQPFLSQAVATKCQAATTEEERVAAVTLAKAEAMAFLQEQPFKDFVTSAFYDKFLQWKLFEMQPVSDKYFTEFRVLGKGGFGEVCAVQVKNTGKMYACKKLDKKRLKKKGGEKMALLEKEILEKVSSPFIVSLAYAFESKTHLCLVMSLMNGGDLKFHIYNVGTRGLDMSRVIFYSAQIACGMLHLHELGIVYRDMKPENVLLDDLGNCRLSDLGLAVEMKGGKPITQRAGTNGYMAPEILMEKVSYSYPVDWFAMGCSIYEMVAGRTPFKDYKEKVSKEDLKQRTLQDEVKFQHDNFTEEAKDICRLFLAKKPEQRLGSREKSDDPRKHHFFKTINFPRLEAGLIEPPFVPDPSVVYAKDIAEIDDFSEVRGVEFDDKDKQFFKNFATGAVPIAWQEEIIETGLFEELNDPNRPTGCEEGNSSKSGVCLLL

WNK3 (human), sequence (Q9BYP7 whole entry, looked up): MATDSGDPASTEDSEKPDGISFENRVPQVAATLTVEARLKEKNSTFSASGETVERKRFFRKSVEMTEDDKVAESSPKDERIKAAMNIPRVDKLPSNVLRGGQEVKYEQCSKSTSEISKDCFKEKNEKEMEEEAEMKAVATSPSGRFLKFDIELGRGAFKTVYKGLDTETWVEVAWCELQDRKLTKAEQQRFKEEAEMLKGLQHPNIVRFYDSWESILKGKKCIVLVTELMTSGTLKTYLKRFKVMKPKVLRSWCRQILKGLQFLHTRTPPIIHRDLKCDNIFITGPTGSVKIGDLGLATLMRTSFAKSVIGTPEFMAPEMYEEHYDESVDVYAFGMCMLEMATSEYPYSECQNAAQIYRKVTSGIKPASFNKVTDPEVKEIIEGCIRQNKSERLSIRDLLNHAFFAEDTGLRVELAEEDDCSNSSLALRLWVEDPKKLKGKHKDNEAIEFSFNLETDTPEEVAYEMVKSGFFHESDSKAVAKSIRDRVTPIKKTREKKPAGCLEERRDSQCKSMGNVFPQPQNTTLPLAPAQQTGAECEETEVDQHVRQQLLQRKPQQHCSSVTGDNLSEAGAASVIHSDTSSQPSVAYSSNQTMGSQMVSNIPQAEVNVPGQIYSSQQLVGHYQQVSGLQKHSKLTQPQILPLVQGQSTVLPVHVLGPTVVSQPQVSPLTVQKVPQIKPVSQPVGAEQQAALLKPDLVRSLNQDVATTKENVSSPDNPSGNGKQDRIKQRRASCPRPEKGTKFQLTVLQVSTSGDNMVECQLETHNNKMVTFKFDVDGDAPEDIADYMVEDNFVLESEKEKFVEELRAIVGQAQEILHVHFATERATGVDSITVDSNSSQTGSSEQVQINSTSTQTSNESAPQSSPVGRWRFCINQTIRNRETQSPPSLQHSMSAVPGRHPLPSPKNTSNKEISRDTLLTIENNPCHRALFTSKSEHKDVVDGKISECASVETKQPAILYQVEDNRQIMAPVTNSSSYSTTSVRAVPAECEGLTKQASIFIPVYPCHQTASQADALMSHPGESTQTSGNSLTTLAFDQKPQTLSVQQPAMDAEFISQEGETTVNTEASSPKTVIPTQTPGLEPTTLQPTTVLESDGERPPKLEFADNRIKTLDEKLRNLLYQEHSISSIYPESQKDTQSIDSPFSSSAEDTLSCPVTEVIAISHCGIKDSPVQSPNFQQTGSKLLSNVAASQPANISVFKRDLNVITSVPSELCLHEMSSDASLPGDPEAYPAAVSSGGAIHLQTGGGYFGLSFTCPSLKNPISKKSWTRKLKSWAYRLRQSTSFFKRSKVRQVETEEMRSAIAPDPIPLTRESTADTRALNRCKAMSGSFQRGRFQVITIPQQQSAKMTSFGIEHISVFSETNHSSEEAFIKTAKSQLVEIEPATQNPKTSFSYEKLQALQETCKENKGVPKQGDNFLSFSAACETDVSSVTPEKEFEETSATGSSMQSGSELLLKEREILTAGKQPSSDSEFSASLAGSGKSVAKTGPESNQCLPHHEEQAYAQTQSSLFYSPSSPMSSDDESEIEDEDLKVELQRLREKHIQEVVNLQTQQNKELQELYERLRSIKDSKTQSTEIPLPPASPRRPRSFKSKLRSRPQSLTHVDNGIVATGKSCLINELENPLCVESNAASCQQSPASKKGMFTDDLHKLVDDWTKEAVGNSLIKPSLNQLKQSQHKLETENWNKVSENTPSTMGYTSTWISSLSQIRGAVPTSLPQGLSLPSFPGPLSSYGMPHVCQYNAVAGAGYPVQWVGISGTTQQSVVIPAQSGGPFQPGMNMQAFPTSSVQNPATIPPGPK
CDK6 CCND1 (human), sequence (P24385 whole entry, looked up): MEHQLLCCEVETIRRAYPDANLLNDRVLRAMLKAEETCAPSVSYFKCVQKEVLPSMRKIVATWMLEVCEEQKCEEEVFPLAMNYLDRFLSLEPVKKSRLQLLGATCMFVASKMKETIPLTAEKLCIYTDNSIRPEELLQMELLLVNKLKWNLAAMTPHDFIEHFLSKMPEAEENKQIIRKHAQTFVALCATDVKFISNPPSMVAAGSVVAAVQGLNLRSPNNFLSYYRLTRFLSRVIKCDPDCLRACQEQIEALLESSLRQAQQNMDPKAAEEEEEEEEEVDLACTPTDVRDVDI
CDK6 CCND1 (human), sequence (Q00534 whole entry, looked up): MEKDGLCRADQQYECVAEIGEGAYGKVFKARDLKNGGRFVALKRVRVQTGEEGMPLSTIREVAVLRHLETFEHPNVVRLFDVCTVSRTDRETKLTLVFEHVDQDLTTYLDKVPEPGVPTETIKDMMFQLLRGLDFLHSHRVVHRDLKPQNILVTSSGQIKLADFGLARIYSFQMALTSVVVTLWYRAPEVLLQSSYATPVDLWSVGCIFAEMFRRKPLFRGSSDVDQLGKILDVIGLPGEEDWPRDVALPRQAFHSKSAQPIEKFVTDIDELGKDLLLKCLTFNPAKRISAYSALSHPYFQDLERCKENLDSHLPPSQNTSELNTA
SRC (human), sequence (P12931 whole entry, looked up): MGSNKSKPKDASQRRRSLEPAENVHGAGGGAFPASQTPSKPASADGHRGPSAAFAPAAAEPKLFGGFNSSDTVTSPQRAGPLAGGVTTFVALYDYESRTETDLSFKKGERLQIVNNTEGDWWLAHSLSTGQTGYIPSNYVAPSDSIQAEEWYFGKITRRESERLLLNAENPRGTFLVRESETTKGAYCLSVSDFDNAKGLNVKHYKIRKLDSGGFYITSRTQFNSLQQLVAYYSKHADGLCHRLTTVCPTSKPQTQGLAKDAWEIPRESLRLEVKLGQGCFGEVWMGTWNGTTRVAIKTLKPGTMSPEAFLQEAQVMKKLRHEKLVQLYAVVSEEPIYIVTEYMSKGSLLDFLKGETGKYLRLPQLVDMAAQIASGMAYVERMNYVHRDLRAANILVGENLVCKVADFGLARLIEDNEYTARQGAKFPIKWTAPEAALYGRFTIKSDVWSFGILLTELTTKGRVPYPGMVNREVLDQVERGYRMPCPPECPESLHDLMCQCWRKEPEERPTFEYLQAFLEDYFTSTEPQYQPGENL
MAP3K7 TAB1 (human), sequence (O43318 whole entry, looked up): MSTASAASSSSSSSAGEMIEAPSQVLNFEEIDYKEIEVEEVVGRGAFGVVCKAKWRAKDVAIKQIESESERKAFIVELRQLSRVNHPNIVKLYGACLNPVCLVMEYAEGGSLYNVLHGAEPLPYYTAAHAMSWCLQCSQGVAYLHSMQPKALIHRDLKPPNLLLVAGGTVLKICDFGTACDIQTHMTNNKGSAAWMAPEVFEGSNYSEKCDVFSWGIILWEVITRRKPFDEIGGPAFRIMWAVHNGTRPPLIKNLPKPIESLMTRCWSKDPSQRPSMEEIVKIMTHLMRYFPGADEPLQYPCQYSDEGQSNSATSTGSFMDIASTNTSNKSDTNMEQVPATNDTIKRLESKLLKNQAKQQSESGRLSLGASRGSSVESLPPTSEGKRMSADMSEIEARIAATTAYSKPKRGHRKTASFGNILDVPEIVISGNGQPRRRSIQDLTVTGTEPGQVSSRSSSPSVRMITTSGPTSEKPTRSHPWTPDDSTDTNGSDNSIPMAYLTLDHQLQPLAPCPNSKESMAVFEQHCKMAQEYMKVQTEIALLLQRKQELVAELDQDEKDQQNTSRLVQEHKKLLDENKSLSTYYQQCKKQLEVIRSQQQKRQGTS
MAP3K7 TAB1 (human), sequence (Q15750 whole entry, looked up): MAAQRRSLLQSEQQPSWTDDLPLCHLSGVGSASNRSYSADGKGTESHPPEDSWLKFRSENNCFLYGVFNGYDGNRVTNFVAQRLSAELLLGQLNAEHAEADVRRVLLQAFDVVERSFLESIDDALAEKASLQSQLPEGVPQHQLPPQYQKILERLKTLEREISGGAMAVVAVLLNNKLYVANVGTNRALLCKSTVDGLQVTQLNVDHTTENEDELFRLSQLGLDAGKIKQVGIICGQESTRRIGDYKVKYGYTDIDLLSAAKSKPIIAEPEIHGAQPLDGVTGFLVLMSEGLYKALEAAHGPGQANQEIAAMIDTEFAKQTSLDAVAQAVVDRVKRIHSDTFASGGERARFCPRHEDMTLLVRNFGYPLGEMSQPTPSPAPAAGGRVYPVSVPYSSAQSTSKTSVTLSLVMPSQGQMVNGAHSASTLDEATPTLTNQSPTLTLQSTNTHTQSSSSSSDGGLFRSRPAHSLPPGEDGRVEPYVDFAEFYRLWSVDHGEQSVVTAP
MST4 (human), sequence (Q9P289 whole entry, looked up): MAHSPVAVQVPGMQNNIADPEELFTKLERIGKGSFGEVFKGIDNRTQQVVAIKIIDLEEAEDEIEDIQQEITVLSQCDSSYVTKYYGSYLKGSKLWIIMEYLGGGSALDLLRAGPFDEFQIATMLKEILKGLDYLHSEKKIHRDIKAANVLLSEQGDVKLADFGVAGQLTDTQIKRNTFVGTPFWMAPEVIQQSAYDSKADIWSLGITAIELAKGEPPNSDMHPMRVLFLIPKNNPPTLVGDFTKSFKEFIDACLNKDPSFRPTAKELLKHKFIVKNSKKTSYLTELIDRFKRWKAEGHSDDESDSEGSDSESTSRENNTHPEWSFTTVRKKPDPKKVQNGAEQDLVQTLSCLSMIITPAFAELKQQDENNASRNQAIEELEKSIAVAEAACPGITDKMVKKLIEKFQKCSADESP

`COc1cc2c(cc1OC)-c1[nH]nc(Nc3cccc(F)c3)c1C2` showed a residual activity (CDK4 CCND1 (human)) of 93.9%, a residual activity (DAPK2 (human)) of 86.7% and a residual activity (CDC42BPB (human)) of 99.2%. It also gave a residual activity (MAP3K7 TAB1 (human)) of 94%, a residual activity (MAP4K2 (human)) of 103% and a residual activity (PRKCZ (human)) of 99.7%. For the same compound, the residual activity (CLK3 (human)) was 96.5%, the residual activity (TTK (human)) was 84.1% and the residual activity (SRC (human)) was 63.4%. The residual activity (LRRK2 (human)) was 82.3%, the residual activity (ACVR1 (human)) was 107% and the residual activity (PKN2 (human)) was 92%. It also gave a residual activity (WNK2 (human)) of 104%, a residual activity (FER (human)) of 94% and a residual activity (TSSK2 (human)) of 75.1%. The residual activity (PRKCB2 (human)) was 103%, the residual activity (CDK4 CCND3 (human)) was 95.4% and the residual activity (FLT1 (human)) was 82.6%. The residual activity (MAPK12 (human)) was 101%, the residual activity (CDK6 CCND1 (human)) was 92.9% and the residual activity (EPHA4 (human)) was 93.3%. For the same compound, the residual activity (TYRO3 (human)) was 97.2%, the residual activity (NLK (human)) was 74.1% and the residual activity (MAPK8 (human)) was 85.2%. It also gave a residual activity (AKT2 (human)) of 95.3%, a residual activity (PLK3 (human)) of 94.9% and a residual activity (PDGFRB (human)) of 45.3%. The residual activity (FGFR1 (human)) was 99.2%, the residual activity (SYK (human)) was 103% and the residual activity (RPS6KA5 KD2 (human)) was 96%. For the same compound, the residual activity (CSNK1E (human)) was 94.3%, the residual activity (LIMK1 (human)) was 23.3% and the residual activity (RPS6KA4 KD2 (human)) was 99.8%. The residual activity (WNK3 (human)) was 104%, the residual activity (MST4 (human)) was 97% and the residual activity (ERBB4 (human)) was 96.5%. It also gave a residual activity (MAPK13 (human)) of 99.7%, a residual activity (PIM2 (human)) of 119% and a residual activity (AURKC (human)) of 94.5%. The residual activity (DDR2 (human)) was 110%, the residual activity (MAPKAPK3 (human)) was 90.8% and the residual activity (GRK7 (human)) was 101%.

`O=C1NC(=O)c2cc(Nc3ccc(F)cc3)c(Nc3ccc(F)cc3)cc21` was tested, and the residual activity (CDK4 CCND1 (human)) was 101%, the residual activity (DAPK2 (human)) was 96.7% and the residual activity (CDC42BPB (human)) was 100%. It also gave a residual activity (MAP3K7 TAB1 (human)) of 98.8%, a residual activity (MAP4K2 (human)) of 98.2% and a residual activity (PRKCZ (human)) of 100%. For the same compound, the residual activity (CLK3 (human)) was 93.7%, the residual activity (TTK (human)) was 95.4% and the residual activity (SRC (human)) was 101%. It also gave a residual activity (LRRK2 (human)) of 99.8%, a residual activity (ACVR1 (human)) of 92.3% and a residual activity (PKN2 (human)) of 102%. For the same compound, the residual activity (WNK2 (human)) was 110%, the residual activity (FER (human)) was 96.4% and the residual activity (TSSK2 (human)) was 97.2%. It also gave a residual activity (PRKCB2 (human)) of 15.5%, a residual activity (CDK4 CCND3 (human)) of 99% and a residual activity (FLT1 (human)) of 81.5%. The residual activity (MAPK12 (human)) was 93.6%, the residual activity (CDK6 CCND1 (human)) was 99% and the residual activity (EPHA4 (human)) was 94%. For the same compound, the residual activity (TYRO3 (human)) was 94.8%, the residual activity (NLK (human)) was 103% and the residual activity (MAPK8 (human)) was 91.4%. For the same compound, the residual activity (AKT2 (human)) was 95.1%, the residual activity (PLK3 (human)) was 98% and the residual activity (PDGFRB (human)) was 93.9%. It also gave a residual activity (FGFR1 (human)) of 92.1%, a residual activity (SYK (human)) of 98.8% and a residual activity (RPS6KA5 KD2 (human)) of 93.6%. For the same compound, the residual activity (CSNK1E (human)) was 98%, the residual activity (LIMK1 (human)) was 95.9% and the residual activity (RPS6KA4 KD2 (human)) was 102%. The residual activity (WNK3 (human)) was 92.7%, the residual activity (MST4 (human)) was 99% and the residual activity (ERBB4 (human)) was 99.4%. For the same compound, the residual activity (MAPK13 (human)) was 99.4%, the residual activity (PIM2 (human)) was 98.6% and the residual activity (AURKC (human)) was 90.8%. It also gave a residual activity (DDR2 (human)) of 99.6%, a residual activity (MAPKAPK3 (human)) of 95.9% and a residual activity (GRK7 (human)) of 106%.

Work on `O=C1NC(=O)c2c1c1c3ccccc3[nH]c1c1[nH]c3cc(Br)ccc3c21` yielded a residual activity (CDK4 CCND1 (human)) of 84.9%, a residual activity (DAPK2 (human)) of 98.4% and a residual activity (CDC42BPB (human)) of 84.1%. For the same compound, the residual activity (MAP3K7 TAB1 (human)) was 91.4%, the residual activity (MAP4K2 (human)) was 74.1% and the residual activity (PRKCZ (human)) was 91.8%. It also gave a residual activity (CLK3 (human)) of 93.4%, a residual activity (TTK (human)) of 98.7% and a residual activity (SRC (human)) of 88.9%. It also gave a residual activity (LRRK2 (human)) of 49.8%, a residual activity (ACVR1 (human)) of 127% and a residual activity (PKN2 (human)) of 88.7%. It also gave a residual activity (WNK2 (human)) of 92.1%, a residual activity (FER (human)) of 88.9% and a residual activity (TSSK2 (human)) of 96.9%. It also gave a residual activity (PRKCB2 (human)) of 72.8%, a residual activity (CDK4 CCND3 (human)) of 21.1% and a residual activity (FLT1 (human)) of 56.5%. For the same compound, the residual activity (MAPK12 (human)) was 100%, the residual activity (CDK6 CCND1 (human)) was 12.2% and the residual activity (EPHA4 (human)) was 91.3%. It also gave a residual activity (TYRO3 (human)) of 89.7%, a residual activity (NLK (human)) of 81.7% and a residual activity (MAPK8 (human)) of 85.2%. The residual activity (AKT2 (human)) was 86.9%, the residual activity (PLK3 (human)) was 93.3% and the residual activity (PDGFRB (human)) was 82.6%. For the same compound, the residual activity (FGFR1 (human)) was 85.3%, the residual activity (SYK (human)) was 58.3% and the residual activity (RPS6KA5 KD2 (human)) was 76.1%. For the same compound, the residual activity (CSNK1E (human)) was 82.2%, the residual activity (LIMK1 (human)) was 83.5% and the residual activity (RPS6KA4 KD2 (human)) was 75.9%. The residual activity (WNK3 (human)) was 92.3%, the residual activity (MST4 (human)) was 80.5% and the residual activity (ERBB4 (human)) was 101%. For the same compound, the residual activity (MAPK13 (human)) was 99.1%, the residual activity (PIM2 (human)) was 44.6% and the residual activity (AURKC (human)) was 51.9%. The residual activity (DDR2 (human)) was 91.8%, the residual activity (MAPKAPK3 (human)) was 118% and the residual activity (GRK7 (human)) was 98.2%.
